Reference: ChEMBL document CHEMBL5029192, “Novel Macrocyclic LRRK2 Inhibitors for Treating Parkinson's Disease” (ACS Med Chem Lett, 2022)

target: Leucine-rich repeat serine/threonine-protein kinase 2 (Homo sapiens, UniProt Q5S007); assay: Inhibition of recombinant human LRRK2 using LRRKtide peptide and ATP as substrates incubated for 1 hrs by ADP-glo luminescent assay
Sequence (Q5S007 whole entry): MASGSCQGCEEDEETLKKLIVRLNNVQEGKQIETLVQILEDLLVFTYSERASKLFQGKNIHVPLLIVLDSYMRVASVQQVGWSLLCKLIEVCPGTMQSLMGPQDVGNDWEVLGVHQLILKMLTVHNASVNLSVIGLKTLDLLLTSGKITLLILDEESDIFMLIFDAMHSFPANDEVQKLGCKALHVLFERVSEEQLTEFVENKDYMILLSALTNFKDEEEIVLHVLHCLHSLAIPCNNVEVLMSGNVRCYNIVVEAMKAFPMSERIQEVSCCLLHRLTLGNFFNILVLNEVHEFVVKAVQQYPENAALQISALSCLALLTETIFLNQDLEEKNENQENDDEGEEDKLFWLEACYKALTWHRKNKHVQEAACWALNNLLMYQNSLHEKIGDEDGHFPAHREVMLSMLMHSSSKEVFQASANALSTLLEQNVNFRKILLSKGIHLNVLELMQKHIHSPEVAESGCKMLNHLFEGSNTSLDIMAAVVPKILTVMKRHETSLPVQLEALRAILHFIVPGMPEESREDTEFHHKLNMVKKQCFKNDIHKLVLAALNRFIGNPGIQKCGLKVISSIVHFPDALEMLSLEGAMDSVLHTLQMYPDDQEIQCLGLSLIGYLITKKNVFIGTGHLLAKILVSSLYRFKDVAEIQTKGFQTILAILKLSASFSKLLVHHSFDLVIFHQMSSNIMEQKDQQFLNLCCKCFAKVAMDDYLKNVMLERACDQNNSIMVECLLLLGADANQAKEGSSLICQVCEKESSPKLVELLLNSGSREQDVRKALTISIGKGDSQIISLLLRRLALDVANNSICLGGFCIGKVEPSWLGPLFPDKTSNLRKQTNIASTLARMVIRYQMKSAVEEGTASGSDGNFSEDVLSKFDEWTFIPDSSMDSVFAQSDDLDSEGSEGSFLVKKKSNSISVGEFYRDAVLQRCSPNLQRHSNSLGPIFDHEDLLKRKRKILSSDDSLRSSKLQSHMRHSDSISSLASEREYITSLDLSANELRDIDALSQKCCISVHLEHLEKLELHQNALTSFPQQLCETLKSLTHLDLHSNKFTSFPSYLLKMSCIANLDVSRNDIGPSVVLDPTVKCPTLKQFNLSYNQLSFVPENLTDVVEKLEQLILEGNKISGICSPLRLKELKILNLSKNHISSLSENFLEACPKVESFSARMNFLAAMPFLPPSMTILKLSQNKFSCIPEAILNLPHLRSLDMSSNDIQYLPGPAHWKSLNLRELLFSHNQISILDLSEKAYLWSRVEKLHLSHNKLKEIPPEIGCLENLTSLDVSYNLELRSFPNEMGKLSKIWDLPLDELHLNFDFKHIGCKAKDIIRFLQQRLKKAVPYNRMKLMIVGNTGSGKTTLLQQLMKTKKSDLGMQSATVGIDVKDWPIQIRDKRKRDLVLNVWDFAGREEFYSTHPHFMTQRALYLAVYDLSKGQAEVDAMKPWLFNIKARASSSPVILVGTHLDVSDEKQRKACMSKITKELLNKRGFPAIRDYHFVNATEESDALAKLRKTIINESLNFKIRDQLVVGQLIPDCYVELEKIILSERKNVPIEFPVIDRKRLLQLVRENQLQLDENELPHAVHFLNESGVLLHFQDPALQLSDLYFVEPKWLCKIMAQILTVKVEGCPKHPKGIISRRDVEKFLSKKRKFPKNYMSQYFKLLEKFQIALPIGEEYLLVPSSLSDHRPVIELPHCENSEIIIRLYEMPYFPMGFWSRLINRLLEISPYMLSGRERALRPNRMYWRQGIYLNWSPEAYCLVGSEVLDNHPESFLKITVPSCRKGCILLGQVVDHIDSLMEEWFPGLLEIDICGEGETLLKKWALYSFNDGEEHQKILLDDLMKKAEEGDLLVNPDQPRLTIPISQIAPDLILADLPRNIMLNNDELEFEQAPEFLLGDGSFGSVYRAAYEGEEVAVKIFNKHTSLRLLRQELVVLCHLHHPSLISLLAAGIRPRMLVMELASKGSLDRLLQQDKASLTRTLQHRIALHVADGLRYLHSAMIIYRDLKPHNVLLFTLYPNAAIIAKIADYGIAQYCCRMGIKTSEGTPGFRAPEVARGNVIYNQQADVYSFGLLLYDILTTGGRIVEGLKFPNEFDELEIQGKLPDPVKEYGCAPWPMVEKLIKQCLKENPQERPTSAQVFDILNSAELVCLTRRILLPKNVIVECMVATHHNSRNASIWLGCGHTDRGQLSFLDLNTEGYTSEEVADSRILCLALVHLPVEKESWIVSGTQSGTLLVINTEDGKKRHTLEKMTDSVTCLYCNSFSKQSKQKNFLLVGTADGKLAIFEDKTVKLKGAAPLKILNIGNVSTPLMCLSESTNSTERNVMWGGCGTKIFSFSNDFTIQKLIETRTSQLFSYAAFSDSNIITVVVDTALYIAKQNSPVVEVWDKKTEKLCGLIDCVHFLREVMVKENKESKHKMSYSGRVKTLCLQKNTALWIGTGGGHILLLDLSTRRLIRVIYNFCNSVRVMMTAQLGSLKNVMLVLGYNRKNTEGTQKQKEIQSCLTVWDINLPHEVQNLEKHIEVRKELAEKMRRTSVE

SMILES	IC50 [nM]
O=C1NCCCOc2ccc3[nH]nc(c3c2)-c2cc(cc(N3CCC(N4CCCC4)CC3)c2)CO1	< 10
O=C1NCCCOc2ccc3[nH]nc(c3c2)-c2cc(cc(N3CCC(N4CCOCC4)CC3)c2)CO1	< 10

Continued, values first:

IC50 [nM]	SMILES
< 10	O=C1NCCCOc2ccc3[nH]nc(c3c2)-c2csc(n2)CCO1
< 10	O=C1NCCCOc2ccc3[nH]nc(c3c2)-c2ccc(C3CC3)c(c2)CO1
< 10	O=C1NCCCOc2ccc3[nH]nc(c3c2)-c2cc(cc(N3CCN(C4COC4)CC3)c2)CO1
< 10	O=C1NCCCOc2ccc3[nH]nc(c3c2)-c2cc(cc(N3CCC4(COC4)C3)c2)CO1
